Calls of active or inactive are those of the source.
Experiments:
[1] = molecular target: T1, Bcl-2-like protein 10 (Homo sapiens, UniProt Q9HD36); test: Bcl-B/TR3 peptide binding disruption – biochemical, fluorescence polarization, FITC-TR3 peptide, selectivity assay for Bfl-1 inhibitor project, primary screen (AID 748);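 further: fluorescence polarization from a fluorescein-labelled TR3 peptide binding purified Bcl-B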
T1 sequence (Q9HD36 whole entry): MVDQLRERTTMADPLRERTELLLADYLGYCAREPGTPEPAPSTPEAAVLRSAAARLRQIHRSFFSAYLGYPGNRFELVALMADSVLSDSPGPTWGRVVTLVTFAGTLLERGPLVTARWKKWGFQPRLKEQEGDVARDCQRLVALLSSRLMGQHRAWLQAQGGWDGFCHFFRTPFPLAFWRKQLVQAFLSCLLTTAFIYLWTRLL

[2] = molecular target: T2, Aryl hydrocarbon receptor (Homo sapiens, UniProt P35869); test: Luminescence-based cell-based high throughput dose response assay for activators of the Aryl Hydrocarbon Receptor (AHR). [Related pubchem assays: 2796 (Primary screen (AHR activators in singlicate)), 2845 (Confirmation screen (AHR activators in triplicate)), 434939 (Counterscreen (PXR activators in triplicate)), 2804 (Summary (AHR activators))]; type: ADME
T2 sequence (P35869 whole entry): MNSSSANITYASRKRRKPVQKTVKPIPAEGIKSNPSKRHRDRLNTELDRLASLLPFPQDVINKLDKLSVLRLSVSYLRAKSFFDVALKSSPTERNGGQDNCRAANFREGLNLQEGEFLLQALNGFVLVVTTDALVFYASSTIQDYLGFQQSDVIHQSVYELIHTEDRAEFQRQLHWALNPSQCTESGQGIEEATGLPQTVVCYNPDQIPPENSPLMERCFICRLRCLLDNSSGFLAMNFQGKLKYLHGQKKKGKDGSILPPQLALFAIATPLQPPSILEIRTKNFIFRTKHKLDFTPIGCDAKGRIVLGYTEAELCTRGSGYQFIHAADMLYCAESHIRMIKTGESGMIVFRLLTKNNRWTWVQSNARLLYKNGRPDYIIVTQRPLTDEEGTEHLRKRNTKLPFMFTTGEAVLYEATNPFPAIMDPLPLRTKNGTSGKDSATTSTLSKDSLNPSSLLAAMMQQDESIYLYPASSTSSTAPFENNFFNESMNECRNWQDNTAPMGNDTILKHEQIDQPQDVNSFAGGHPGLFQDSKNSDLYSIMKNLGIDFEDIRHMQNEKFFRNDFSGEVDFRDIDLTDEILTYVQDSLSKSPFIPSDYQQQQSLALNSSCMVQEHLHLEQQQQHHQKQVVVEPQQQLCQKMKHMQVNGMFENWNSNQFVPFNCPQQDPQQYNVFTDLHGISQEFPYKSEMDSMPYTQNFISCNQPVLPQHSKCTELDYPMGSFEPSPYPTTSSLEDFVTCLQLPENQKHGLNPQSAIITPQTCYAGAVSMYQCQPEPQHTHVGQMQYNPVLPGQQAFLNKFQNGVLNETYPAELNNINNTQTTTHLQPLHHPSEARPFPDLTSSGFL

[3] = viability of uninfected HEp-2 cells – cell-based, HTS, cytotoxicity control for RSV inhibitor project, dose response (AID 2410); type: functional; conditions: human respiratory syncytial virus
[4] = molecular target: X-box-binding protein 1 (Homo sapiens, UniProt P17861); type: functional, Cricetulus griseus;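 further: confirmatory dose-response counter-screen serving a CHOP assay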
[5] = molecular target: T3, Oxysterols receptor LXR-beta (Homo sapiens, UniProt P55055); type: functional, cell-based;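 further: agonist activity at LXR measured by a cell-based luminescence readout across a dose range, run as a counterscreen for daf-12 agonists; HEK293 cells with Gal4-LXR fusion and GAL4-driven luciferase reporter; potency for activation of Gal4-LXR reporter so compounds are agonists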
T3 sequence (P55055 whole entry): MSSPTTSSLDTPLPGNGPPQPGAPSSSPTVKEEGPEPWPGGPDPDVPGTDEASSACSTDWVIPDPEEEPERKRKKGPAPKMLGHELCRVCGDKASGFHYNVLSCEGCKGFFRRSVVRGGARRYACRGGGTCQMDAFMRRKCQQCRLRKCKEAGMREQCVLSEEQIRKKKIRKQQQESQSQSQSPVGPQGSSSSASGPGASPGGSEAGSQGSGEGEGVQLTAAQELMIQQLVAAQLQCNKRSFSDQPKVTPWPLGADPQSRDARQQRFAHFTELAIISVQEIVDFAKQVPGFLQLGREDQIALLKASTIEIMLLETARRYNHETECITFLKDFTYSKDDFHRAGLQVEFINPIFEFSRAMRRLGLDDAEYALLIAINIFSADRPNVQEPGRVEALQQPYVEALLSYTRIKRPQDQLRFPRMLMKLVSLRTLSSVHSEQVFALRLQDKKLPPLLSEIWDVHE

[6] = molecular target: DNA damage-inducible transcript 3 protein (Mus musculus, UniProt P35639); type: functional, Cricetulus griseus
[7] = molecular target: T4, Protein skinhead-1 (Caenorhabditis elegans, UniProt P34707); type: functional
T4 sequence (P34707 whole entry): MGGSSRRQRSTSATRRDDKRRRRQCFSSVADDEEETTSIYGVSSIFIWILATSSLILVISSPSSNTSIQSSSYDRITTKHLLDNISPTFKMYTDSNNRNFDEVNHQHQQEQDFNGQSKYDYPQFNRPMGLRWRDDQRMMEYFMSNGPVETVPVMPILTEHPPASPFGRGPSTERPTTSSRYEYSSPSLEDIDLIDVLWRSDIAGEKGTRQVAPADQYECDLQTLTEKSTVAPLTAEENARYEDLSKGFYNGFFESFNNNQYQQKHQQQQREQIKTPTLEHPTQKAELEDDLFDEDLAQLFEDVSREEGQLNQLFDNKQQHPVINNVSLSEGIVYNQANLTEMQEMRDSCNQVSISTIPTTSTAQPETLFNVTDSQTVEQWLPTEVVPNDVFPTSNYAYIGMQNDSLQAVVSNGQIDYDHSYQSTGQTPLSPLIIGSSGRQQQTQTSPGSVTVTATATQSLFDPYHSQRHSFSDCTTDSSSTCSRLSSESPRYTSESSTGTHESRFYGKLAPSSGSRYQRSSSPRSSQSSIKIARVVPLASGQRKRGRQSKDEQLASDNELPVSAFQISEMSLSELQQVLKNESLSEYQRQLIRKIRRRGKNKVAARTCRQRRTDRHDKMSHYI

[8] = Luminescence Cell-Based Dose Response HTS to Identify Inhibitors of 5'UTR Stem-Loop Driven Prion Protein mRNA Translation in H4 Neuroglioblastoma Cells. [Related pubchem assays: 1827 (Project Summary), 1813 (Primary HTS)]; type: functional
[9] = molecular target: T5, Streptokinase A (Streptococcus pyogenes serotype M1, UniProt P10520); test: viability-normalized secreted streptokinase activity reduction – plasminogen activation absorbance, OD405, dose response (AID 1914); type: functional, Streptococcus pyogenes M1 GAS;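 further: secreted streptokinase activity via plasminogen activation per viability signal from cell pellet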
T5 sequence (P10520 whole entry): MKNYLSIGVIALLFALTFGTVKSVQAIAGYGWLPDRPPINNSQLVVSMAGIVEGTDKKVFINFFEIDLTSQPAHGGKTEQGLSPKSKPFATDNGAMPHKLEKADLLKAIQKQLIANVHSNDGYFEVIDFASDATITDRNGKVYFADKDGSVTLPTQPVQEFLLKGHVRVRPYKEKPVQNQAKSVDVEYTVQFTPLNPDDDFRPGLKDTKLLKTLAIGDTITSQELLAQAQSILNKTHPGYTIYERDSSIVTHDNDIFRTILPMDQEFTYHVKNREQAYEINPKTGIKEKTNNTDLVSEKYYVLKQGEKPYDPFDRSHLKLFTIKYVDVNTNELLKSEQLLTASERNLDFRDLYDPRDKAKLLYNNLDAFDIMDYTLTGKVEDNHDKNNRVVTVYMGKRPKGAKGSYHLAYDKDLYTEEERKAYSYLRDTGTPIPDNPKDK

[10] = tested on: Streptococcus sp. 'group A'; test: Streptococcus pyogenes SK(-)GAS viability under kanamycin – luminescence, BacTiterGlo, confirmation, counter-screen for streptokinase expression inhibitor project, dose response (AID 1900); type: functional, organism-based
[11] = molecular target: Melanocortin receptor 4 (Homo sapiens, UniProt P32245); type: functional, cell-based;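 further: Cell-based assay with luminescence read-out, confirmatory dose-response testing for agonist activity of biased ligands at MC4R; human U2OS cells with tagged receptor and beta-arrestin; potency of agonists that increase receptor coupling to beta-arrestin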
[12] = alpha-synuclein stem-loop luciferase translation blockers – H4 neuroglioma cells, luminescence, confirmation (AID 1988); type: functional, cell-based
[13] = luciferase reporter signal suppression in cells – H4 neuroglioma cells, luminescence, dose response (AID 1990); type: functional, cell-based
[14] = tested on: Streptococcus; test: GAS UMAA2166 growth inhibition – luminescence, BacTiterGlo, counter-screen for streptokinase expression inhibitor project, dose response (AID 1915); type: functional, organism-based;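 further: potency for reduction of bacterial viability or growth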
[15] = viability of PTEN-deleted HCT116 cells – cell-based, HCT116 PTEN knockout, dose response (AID 1047); type: functional;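 further: HCT116 colon tumor cells with PTEN knocked out; cells exposed to compound for 60 hours before readout; potency for loss of cell viability measured by luminescence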
[16] = viability of HCT116 lacking mutant beta-catenin – cell-based, human colon tumor, dose response (AID 1045); type: functional;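 further: HCT116 colon tumor cells with beta catenin knocked out; cells exposed to compound for 60 hours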
[17] = HEK-293T viability loss after treatment – luminescence, T-cell screen hits, cytotoxicity control for TCR NF-kB inhibitor project, dose response (AID 489026); type: functional, cell-based;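 further: cells exposed to compound about 14 hours before the viability readout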
[18] = tested on: INS1; test: INS-1E survival protection against cytokine death – cell-based, luminescence, retest, dose response (AID 449756); type: functional; conditions: Rattus norvegicus;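 further: cell death triggered by IL-1 beta plus TNF-alpha plus IFN-gamma mixture; protective hits raise ATP signal compared with cytokine alone wells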
[19] = molecular target: T6, Heat shock factor protein 1 (Mus musculus, UniProt P38532); test: decrease of HSF1-responsive luciferase luminescence – cell-based, NIH3T3, dose retest, confirmation (AID 2382); type: functional;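 further: NIH3T3 fibroblasts with HSF1-driven luciferase reporter stressed by proteasome inhibitor MG132; luminescence from HSF1-driven luciferase expression after 8 hours of MG132 stress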
T6 sequence (P38532 whole entry): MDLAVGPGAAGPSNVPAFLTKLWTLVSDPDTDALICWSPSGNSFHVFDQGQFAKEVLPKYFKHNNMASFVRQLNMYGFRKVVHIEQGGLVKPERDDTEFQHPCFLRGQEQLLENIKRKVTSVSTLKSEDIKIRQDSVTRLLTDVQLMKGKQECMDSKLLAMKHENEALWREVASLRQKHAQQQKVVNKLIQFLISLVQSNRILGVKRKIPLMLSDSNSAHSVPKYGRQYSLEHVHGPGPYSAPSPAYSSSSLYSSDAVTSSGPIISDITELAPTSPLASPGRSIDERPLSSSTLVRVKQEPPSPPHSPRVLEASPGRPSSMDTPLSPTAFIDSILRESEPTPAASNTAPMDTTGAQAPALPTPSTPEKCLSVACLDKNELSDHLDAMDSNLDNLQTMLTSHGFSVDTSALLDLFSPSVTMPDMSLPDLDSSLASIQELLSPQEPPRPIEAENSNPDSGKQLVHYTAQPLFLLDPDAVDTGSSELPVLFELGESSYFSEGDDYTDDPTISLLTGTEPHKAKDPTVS

[20] = molecular target: Neurotensin receptor type 1 (Homo sapiens, UniProt P30989); type: functional;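 further: Image-based confirmatory dose-response assay measuring agonist activity at NTR1; NTR1-expressing U2OS osteosarcoma cells imaged for beta-arrestin GFP spot formation; agonist potency where compounds increase beta-arrestin recruitment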
[21] = microbe, parasite or virus in culture; type: functional; conditions: Mycobacterium tuberculosis

Neurotensin receptor type 1, sequence (P30989 whole entry): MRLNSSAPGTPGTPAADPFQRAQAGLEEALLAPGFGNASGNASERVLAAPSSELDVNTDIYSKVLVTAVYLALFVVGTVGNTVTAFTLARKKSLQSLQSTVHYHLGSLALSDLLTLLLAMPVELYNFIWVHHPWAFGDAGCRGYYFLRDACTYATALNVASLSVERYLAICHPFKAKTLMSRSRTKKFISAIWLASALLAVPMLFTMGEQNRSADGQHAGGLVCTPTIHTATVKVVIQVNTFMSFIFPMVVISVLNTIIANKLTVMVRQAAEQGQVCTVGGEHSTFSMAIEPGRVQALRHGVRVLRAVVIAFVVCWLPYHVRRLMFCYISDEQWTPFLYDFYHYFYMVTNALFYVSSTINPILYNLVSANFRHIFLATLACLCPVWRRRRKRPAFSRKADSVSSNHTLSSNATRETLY
Melanocortin receptor 4, sequence (P32245 whole entry): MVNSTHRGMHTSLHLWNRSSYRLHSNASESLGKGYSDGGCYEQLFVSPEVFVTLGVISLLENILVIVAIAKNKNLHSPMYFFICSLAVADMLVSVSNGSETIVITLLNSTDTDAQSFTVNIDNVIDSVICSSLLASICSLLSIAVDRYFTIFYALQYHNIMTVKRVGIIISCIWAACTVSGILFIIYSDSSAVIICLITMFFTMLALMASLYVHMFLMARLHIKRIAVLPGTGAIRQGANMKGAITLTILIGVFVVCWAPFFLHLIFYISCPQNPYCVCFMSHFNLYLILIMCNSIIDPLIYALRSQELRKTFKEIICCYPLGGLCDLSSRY
X-box-binding protein 1, sequence (P17861 whole entry, the tested form may be a part): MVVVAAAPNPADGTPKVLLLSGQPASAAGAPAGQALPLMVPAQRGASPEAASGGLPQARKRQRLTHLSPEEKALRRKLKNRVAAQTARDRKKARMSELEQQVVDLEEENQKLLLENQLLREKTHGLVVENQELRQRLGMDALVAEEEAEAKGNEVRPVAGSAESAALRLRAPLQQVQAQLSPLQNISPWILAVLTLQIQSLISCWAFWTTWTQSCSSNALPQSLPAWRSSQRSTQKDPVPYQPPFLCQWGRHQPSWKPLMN
DNA damage-inducible transcript 3 protein, sequence (P35639 whole entry): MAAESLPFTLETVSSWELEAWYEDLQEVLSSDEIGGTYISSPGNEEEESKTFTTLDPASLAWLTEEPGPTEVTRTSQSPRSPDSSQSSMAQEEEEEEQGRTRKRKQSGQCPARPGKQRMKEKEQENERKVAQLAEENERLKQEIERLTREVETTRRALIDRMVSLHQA

## COc1cccc(N2CCN(Cc3ccsc3)CC2)c1
[1]
  IC50: > 100 µM (inactive)

## Clc1ccc(Nc2nc(-c3cccs3)cs2)nc1
[2]
  EC50: 1.58 µM (active)
[3]
  CC50: 8.33 µM (active)
[4]
  Absolute IC50 (XBP1): 10 µM
[5]
  EC50: > 67.5 µM (inactive)
[6]
  Absolute IC50 (CHOP): 10 µM
[7]
  IC50: 13.6 µM (active)

## CC1=NNC(=O)/C1=C\c1cn(-c2ccccc2)nc1-c1ccc(Cl)cc1
[8]
  EC50: > 60 µM (not active)
[9]
  EC50: 4.83 µM (active)
[10]
  EC50: 5 µM (active)
[11]
  EC50: > 89.2 µM (inactive)
[12]
  EC50: 7.48 µM (active)
[13]
  EC50: > 30 µM (inconclusive)
[14]
  EC50: 14.5 µM (active)
[15]
  EC50: 3.63 µM (active)
[16]
  EC50: 3.51 µM (active)
[17]
  IC50: > 80 µM (inactive)
[18]
  AC50: 8.09 µM (active)
[19]
  EC50: 6.61 µM (active)
[20]
  EC50: 16.8 µM (active)
[21]
  CC50: 20.2 µM (active)

From ChEMBL document CHEMBL1201862, “PubChem BioAssay data set” (2004)
